Reference: patent US11420973B2, “Amide substituted indole compounds useful as TLR inhibitors” (BRISTOL-MYERS SQUIBB COMPANY, priority 2017, dated 2022)
Where a name gives a salt, the structure may show the parent alone.

How the values were obtained:
human TLR7 = human TLR7 (Homo sapiens (Human), UniProt Q9NYK1); experiment: TLR7 inhibition reporter assay (HEK-Blue SEAP reporter, gardiquimod stimulation); type: cell-based; details: HEK-Blue cells overexpressing human TLR7, gardiquimod 7.5 μM
Method: (§1) HEK-Blue™-cells (Invivogen) overexpressing human TLR7, TLR8 or TLR9 receptors were used for screening inhibitors of these receptors using an inducible SEAP (secreted embryonic alkaline phosphatase) reporter gene under the control of the IFN-β minimal promoter fused to five NF-κB and AP-1-binding sites. Briefly, cells are seeded into Greiner 384 well plates (15000 cells per well for TLR7, 20,000 for TLR8 and 25,000 for TLR9) and then treated with test compounds in DMSO to yield a final dose response concentration range of 0.05 nM-50 μM. After a 30 minute compound pre-treatment at room temperature, the cells are then stimulated with a TLR7 ligand (gardiquimod at a final concentration of 7.5 μM), TLR8 ligand (R848 at a final concentration of 15.9 μM) or TLR9 ligand (ODN2006 at a final concentration of 5 nM) to activate NF-κB and AP-1 which induce the production of SEAP. After a 22 hour incubation at 37° C., 5% CO2, SEAP levels are determined with the addition of HEK-Blue™ Detection reagent (Invivogen), a cell culture medium that allows for detection of SEAP, according to manufacturer's specifications.

human TLR9 = human TLR9 (Homo sapiens (Human), UniProt Q9NR96); experiment: TLR9 inhibition reporter assay (HEK-Blue SEAP reporter, ODN2006 stimulation); details: read-out: TLR9 IC50; HEK-Blue cells overexpressing human TLR9, ODN2006 5 nM, SEAP reporter;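 also: SEAP reporter under IFN-β minimal promoter with five NF-κB and AP-1 sites, 22 h incubation, compounds 0.05 nM–50 µM, inhibition relative to agonist plus DMSO versus known inhibitor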
Sequence of human TLR9 (Q9NR96 26-1032): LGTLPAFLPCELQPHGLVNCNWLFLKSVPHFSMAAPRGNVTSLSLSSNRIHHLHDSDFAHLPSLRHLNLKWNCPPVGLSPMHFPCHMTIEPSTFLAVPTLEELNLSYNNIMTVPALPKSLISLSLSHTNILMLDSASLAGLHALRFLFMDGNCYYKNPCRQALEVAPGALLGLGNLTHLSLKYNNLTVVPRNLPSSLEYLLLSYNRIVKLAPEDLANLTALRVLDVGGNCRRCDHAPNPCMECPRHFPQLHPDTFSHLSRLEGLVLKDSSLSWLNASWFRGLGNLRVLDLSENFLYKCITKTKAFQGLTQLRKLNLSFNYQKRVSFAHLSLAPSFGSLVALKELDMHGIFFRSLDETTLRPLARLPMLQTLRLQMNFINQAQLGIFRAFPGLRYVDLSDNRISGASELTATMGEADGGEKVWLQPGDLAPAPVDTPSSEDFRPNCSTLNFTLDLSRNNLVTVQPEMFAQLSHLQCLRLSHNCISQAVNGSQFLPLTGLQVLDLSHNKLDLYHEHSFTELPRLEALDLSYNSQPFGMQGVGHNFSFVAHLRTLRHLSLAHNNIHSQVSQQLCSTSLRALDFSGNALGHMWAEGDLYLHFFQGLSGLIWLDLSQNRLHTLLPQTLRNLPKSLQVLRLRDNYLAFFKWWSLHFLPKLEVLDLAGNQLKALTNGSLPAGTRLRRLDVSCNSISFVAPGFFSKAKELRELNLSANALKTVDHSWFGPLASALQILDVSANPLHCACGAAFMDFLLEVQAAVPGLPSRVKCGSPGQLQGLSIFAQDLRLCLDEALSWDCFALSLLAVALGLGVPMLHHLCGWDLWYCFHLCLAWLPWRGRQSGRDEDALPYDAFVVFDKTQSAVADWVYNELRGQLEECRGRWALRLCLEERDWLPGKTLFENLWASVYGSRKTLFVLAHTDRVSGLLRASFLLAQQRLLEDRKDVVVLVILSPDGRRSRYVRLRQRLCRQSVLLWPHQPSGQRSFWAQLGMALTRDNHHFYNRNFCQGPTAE

human TLR8 = human TLR8 (Homo sapiens (Human), UniProt Q9NR97); experiment: TLR8 inhibition reporter assay (HEK-Blue SEAP reporter, R848 stimulation); details: read-out: TLR8 IC50; HEK-Blue cells overexpressing human TLR8, R848 15.9 μM, SEAP reporter;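 also: SEAP driven by IFN-β minimal promoter with NF-κB and AP-1 sites, 22 h incubation, compounds 0.05 nM–50 µM, inhibition scaled between agonist plus DMSO and reference inhibitor wells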
Sequence of human TLR8 (Q9NR97 27-1041): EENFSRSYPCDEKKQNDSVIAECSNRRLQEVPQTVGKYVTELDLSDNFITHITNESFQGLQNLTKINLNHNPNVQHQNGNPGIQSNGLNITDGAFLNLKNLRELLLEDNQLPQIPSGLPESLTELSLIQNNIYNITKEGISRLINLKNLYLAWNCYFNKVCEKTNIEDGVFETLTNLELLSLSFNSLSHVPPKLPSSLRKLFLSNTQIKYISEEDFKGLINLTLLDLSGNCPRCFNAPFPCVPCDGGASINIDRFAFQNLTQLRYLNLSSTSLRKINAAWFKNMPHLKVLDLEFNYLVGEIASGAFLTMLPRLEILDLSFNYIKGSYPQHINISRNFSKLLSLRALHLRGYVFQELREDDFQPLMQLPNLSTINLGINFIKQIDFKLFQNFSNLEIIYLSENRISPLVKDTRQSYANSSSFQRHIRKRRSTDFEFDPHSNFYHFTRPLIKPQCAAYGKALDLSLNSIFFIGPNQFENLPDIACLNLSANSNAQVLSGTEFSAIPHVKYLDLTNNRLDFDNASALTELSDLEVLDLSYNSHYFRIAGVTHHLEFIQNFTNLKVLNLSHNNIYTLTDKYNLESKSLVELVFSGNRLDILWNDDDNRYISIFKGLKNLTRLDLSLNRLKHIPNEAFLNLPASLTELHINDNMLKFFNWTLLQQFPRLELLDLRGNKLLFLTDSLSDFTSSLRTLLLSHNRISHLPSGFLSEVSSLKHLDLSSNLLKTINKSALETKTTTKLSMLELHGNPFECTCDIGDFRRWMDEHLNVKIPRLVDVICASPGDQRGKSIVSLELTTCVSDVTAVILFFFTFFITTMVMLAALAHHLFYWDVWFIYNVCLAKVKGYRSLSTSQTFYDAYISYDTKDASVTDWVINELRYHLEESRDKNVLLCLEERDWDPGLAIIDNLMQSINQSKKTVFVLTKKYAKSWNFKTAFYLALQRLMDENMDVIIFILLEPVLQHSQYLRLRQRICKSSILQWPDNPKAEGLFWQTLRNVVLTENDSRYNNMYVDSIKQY
Method: as §1

Sequence of human TLR7 (Q9NYK1 27-1049): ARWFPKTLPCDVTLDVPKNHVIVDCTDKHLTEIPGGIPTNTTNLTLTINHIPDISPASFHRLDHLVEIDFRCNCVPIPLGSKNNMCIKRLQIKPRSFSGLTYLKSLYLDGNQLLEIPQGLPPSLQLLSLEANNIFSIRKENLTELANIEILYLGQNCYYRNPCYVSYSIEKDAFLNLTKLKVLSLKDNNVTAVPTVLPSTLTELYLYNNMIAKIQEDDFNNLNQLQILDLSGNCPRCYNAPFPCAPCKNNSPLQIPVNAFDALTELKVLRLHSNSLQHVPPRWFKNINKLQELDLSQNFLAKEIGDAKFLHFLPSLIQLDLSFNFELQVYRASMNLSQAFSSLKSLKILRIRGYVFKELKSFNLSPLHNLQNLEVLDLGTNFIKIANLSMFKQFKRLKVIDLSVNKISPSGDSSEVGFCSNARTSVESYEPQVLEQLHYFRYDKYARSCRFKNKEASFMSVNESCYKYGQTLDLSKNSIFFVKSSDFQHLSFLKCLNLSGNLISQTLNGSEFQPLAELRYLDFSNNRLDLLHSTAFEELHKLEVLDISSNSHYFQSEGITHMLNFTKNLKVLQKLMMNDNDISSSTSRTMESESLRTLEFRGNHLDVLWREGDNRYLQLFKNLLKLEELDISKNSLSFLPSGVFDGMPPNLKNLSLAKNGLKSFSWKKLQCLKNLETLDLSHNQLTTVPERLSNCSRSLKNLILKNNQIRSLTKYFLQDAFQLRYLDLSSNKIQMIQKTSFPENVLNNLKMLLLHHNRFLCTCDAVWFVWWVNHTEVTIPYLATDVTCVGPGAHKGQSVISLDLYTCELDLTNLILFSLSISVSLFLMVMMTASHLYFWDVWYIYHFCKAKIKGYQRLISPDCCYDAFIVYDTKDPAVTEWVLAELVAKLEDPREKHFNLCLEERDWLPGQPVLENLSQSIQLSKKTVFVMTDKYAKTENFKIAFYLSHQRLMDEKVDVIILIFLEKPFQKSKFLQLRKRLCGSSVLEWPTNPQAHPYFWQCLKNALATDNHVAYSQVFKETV

Compound	IC50 (human TLR7) [nM]	IC50 (human TLR9) [nM]	IC50 (human TLR8) [nM]
CCc1c(-c2ccc(OC)c(OC)c2)[nH]c2ccc(C(=O)N(C)Cc3cccnc3)cc12 [Example 22, 2-(3,4-dimethoxyphenyl)-3-ethyl-N-methyl-N-(pyridin-3-ylmethyl)-1H-indole-5-carboxamide]	356	37600	264
Cc1cc(-c2[nH]c3ccc(C(C)(C)C(=O)N(C)C4CCNCC4)cc3c2C(C)C)ccn1 [Example 165, 2-(3-isopropyl-2-(2-methylpyridin-4-yl)-1H-indol-5-yl)-N,2-dimethyl-N-(piperidin-4-yl)propanamide]	61	908	63
Cc1cc(-c2[nH]c3ccc(C(C)(C)C(=O)N4CC5CNCC5C4)cc3c2C(C)C)ccn1 (stereo not drawn) [Example 183, 1-(hexahydropyrrolo[3,4-c]pyrrol-2(1H)-yl)-2-(3-isopropyl-2-(2-methylpyridin-4-yl)-1H-indol-5-yl)-2-methylpropan-1-one]	30	387	103
Cc1cc(-c2[nH]c3ccc(C(=O)N4CC5CNCC5C4)cc3c2CC(F)F)cc(C)n1 (stereo not drawn) [Example 122, (3-(2,2-difluoroethyl)-2-(2,6-dimethylpyridin-4-yl)-1H-indol-5-yl)(hexahydropyrrolo [3,4-c]pyrrol-2(1H)-yl)methanone]	2260	1460	5650
COc1ccc(-c2[nH]c3ccc(C(=O)N4CC5CN(C(C)C)CC5C4)cc3c2C(C)C)cc1OC (stereo not drawn) [Example 14, (2-(3,4-dimethoxyphenyl)-3-isopropyl-1H-indol-5-yl)(5-isopropylhexahydropyrrolo[3,4-c]pyrrol-2(1H)-yl)methanone]	40	1190	26
Cc1cc(-c2[nH]c3ccc(C(=O)N4CC5CN(C)CC5C4)cc3c2C(C)C)ccn1 (stereo not drawn) [Example 115, (3-isopropyl-2-(2-methylpyridin-4-yl)-1H-indol-5-yl)(5-methylhexahydropyrrolo[3,4-c]pyrrol-2(1H)-yl)methanone]	147	1580	3.5
CCc1c(-c2ccc(OC)c(OC)c2)[nH]c2ccc(C(=O)N3CCN(C4CCN(C(C)C)CC4)CC3)cc12 [Example 80, (2-(3,4-dimethoxyphenyl)-3-ethyl-1H-indol-5-yl)(4-(I-isopropylpiperidin-4-yl)piperazin-1-yl) methanone]	177	836	2.9
Cc1cc(-c2[nH]c3ccc(C(C)(C)C(=O)N[C@H]4CCCC[C@H]4N)cc3c2C(C)C)ccn1 [Example 170, N-((1S,2R)-2-aminocyclohexyl)-2-(3-isopropyl-2-(2-methylpyridin-4-yl)-1H-indol-5-yl)-2-methylpropanamide]	11	1660	51
CCc1c(-c2ccc(OC)c(OC)c2)[nH]c2ccc(C(=O)N3CC4CN(C(C)C)CC4C3)cc12 (stereo not drawn) [Example 81, (2-(3,4-dimethoxyphenyl)-3-ethyl-1H-indol-5-yl)(5-isopropylhexahydropyrrolo[3,4-c]pyrrol-2(1H)-yl)methanone]	418	1920	87
CCc1c(-c2ccc(OC)c(OC)c2)[nH]c2ccc(C(=O)NCCC(C)(C)NS(C)(=O)=O)cc12 [Example 71, 2-(3,4-dimethoxyphenyl)-3-ethyl-N-(3-methyl-3-(methylsulfonamido)butyl)-1H-indole-5-carboxamide]	1630	> 50000	439
Cc1cc(-c2[nH]c3ccc(C(C)(C)C(=O)NCC4CCCNC4)cc3c2C(C)C)ccn1 (stereo not drawn) [Example 163, 2-(3-isopropyl-2-(2-methylpyridin-4-yl)-1H-indol-5-yl)-2-methyl-N-(piperidin-3-ylmethyl)propanamide]	238	1880	676
Cc1cc(-c2[nH]c3ccc(C(C)C(=O)N[C@H]4CCNC4)cc3c2C(C)C)ccn1 (stereo partly drawn) [Example 190, 2-(3-isopropyl-2-(2-methylpyridin-4-yl)-1H-indol-5-yl)-N—((S)-pyrrolidin-3-yl)propanamide]	137	957	211
Cc1cc(-c2[nH]c3ccc(C(C)C(=O)N(C)C4CN5CCC4CC5)cc3c2C(C)C)ccn1 (stereo not drawn) [Example 211, 2-(3-isopropyl-2-(2-methylpyridin-4-yl)-1H-indol-5-yl)-N-methyl-N-(quinuclidin-3-yl)propanamide]	50	472	51
Cc1cc(-c2[nH]c3ccc(C(=O)N4CCCN(C)CC4)cc3c2C(C)C)ccn1 [Example 114, (3-isopropyl-2-(2-methylpyridin-4-yl)-1H-indol-5-yl)(4-methyl-1,4-diazepan-1-yl)methanone]	135	3630	2.4
Cc1cc(-c2[nH]c3ccc(C(C)C(=O)NC4CCC5CNCC54)cc3c2C(C)C)ccn1 (stereo not drawn) [Example 186, 2-(3-isopropyl-2-(2-methylpyridin-4-yl)-1H-indol-5-yl)-N-(octahydrocyclopenta[c]pyrrol-4-yl)propanamide]	146	599	100

More lines, in order of falling IC50 (human TLR7), values ahead:

IC50 (human TLR7) [nM]	IC50 (human TLR9) [nM]	IC50 (human TLR8) [nM]	Compound
1600	3330	122	CC(C)c1c(-c2ccnc3[nH]ncc23)[nH]c2ccc(C(=O)N3CC4CNCC4C3)cc12 (stereo not drawn) [Example 121, (hexahydropyrrolo[3,4-c]pyrrol-2(1H)-yl)(3-isopropyl-2-(1H-pyrazolo[3,4-b]pyridin-4-yl)-1H-indol-5-yl)methanone, HCl]
167	999	316	Cc1cc(-c2[nH]c3ccc(C(C)C(=O)NC4CCC(N)CC4)cc3c2C(C)C)ccn1 (stereo not drawn) [Example 217, N-(4-aminocyclohexyl)-2-(3-isopropyl-2-(2-methylpyridin-4-yl)-1H-indol-5-yl)propanamide]
145	30500	27	CNC(=O)c1ccc2[nH]c(-c3ccc(OC)c(OC)c3)c(C(C)C)c2c1 [Example 4, 2-(3,4-dimethoxyphenyl)-3-isopropyl-N-methyl-1H-indole-5-carboxamide]
75	1500	7.3	Cc1cc(-c2[nH]c3ccc(C(=O)NCCN(C)C)cc3c2C(C)C)cc(C)n1 [Example 96, N-(2-(dimethylamino)ethyl)-2-(2,6-dimethylpyridin-4-yl)-3-isopropyl-1H-indole-5-carboxamide]
67	5220	602	Cc1cc(-c2[nH]c3ccc(C(C)(C)C(=O)NCCC4CCCNC4)cc3c2C(C)C)ccn1 (stereo not drawn) [Example 171, 2-(3-isopropyl-2-(2-methylpyridin-4-yl)-1H-indol-5-yl)-2-methyl-N-(2-(piperidin-3-yl)ethyl)propanamide]
50	516	3.6	Cc1cc(-c2[nH]c3ccc(C(=O)NCCCN(C)C)cc3c2C(C)C)cc(C)n1 [Example 95, N-(3-(dimethylamino)propyl)-2-(2,6-dimethylpyridin-4-yl)-3-isopropyl-1H-indole-5-carboxamide]
16	2350	0.5	CCc1c(-c2ccnc3[nH]ccc23)[nH]c2ccc(C(=O)N(CC)CCN(C)C)cc12 [Example 83, N-(2-(dimethylamino)ethyl)-N,3-diethyl-2-(1H-pyrrolo[2,3-b]pyridin-4-yl)-1H-indole-5-carboxamide]
